Laboratory results reported in US20250092052A1, “HETEROARYL DERIVATIVE COMPOUNDS, AND USES THEREOF” (VORONOI INC., priority 2023, published 2025).

Experiments:
Myt1-KD = Myt1-KD (Homo sapiens (Human), UniProt Q99640); assay: Thermal Shift Assay, compound binding to Myt1-KD; settings: 2 μM protein, 100 μM compound, Tm of compound minus Tm of DMSO
Experimental: The degree of compound binding to Myt1-KD was tested using a Thermal Shift Assay. Each protein was diluted to a concentration of 2 μM in 50 mM Tris (pH 7.5) with 100 μM of the compound. SYPRO™ Orange dye was added to the solution, and the plate was transferred to a QuantStudio3 Real-Time PCR System (Applied Biosystems by Thermo Fisher Scientific). […] The degree of protein melting in the presence of the compound compared to DMSO was calculated according to the following Equation 1. ΔTm=Tm (Temperature of Example compound)−Tm (Temperature of DMSO) [Equation 1]

human PKMYT1 enzyme = human PKMYT1 enzyme (Homo sapiens (Human), UniProt Q99640); assay: Inhibitory activity against PKMYT1 kinase (ADP-Glo kinase assay); assay type: biochemical; settings: purified human PKMYT1, ATP, CDK1 substrate, 25° C., 1 hour
Experimental: To evaluate the inhibitory activity of the compounds synthesized according to the above Examples against PKMYT1 kinase, the Example compounds were reacted with purified human PKMYT1 enzyme and assessed using the following method.
The reaction buffer was used as a composition of 200 mM Tris-HCl pH 7.4, 100 mM MgCl2, 0.5 mg/mL BSA, 0.25 mM DTT, and the reactions of all the tests were carried out on the reaction buffer.
The compound was diluted in 12 steps using a serial dilution method from a 10 mM DMSO stock, and the enzyme activity was measured at a final compound concentration of 10˜0.00005645 μM. During the test, the enzyme activity was confirmed using in vitro ADP-Glo™kinase assay (Promega) after reacting with the proper concentration of PKMYT1 enzyme, purified ATP, and enzyme substrate (CDK1) at 25° C. for 1 hour. At a ratio of 2:2:1, an enzyme-active reaction solution, an ADP-Glo reaction solution, and an enzyme-active detection solution were reacted to measure the inhibition of the enzyme's activity with luminescence. Based on the […] of the enzyme activity of the solvent control that was not treated with the compound, the degree of enzyme activity inhibition was calculated according to the treatment concentration of each compound, and the concentration of each compound that inhibits 50% of enzyme activity was determined as IC50 (nM) value and the value was obtained by using GraphPad Prism 8.3.0 (GraphPad software Inc., San Diego) software.

Chain of human PKMYT1 enzyme (Q99640 whole entry): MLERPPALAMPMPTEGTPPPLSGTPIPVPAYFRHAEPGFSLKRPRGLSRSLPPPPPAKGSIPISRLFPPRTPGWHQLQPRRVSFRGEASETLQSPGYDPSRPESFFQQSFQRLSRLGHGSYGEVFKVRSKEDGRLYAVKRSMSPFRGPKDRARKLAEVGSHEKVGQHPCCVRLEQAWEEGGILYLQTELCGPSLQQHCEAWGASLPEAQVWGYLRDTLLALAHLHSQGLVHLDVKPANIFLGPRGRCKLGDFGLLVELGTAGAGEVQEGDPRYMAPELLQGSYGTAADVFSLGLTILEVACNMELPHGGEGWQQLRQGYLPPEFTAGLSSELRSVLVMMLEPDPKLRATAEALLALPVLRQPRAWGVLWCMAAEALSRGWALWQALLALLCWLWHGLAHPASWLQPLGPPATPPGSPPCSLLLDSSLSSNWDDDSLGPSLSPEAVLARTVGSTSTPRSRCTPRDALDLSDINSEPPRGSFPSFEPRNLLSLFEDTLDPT
Chain of Myt1-KD (Q99640 110-359): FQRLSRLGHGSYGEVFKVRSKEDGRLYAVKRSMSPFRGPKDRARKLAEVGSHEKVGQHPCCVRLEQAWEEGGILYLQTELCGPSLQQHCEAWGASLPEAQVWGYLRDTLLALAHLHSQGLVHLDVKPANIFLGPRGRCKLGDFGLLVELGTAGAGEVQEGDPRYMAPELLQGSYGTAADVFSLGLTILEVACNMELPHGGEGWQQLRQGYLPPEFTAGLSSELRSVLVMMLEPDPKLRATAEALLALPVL

Structure (SMILES)	ΔTm (° C.) (Myt1-KD)	IC50 (human PKMYT1 enzyme)	ΔTm at 100 µM (Myt1-KD)
Cc1ccc(O)c(C)c1-n1c(N)c(C(=O)c2cc3cc(N4CCN(C)CC4)ccc3[nH]2)c2nccnc21 (atropisomer, axis not shown) [Example 22, (R)-(6-amino-5-(3-hydroxy-2,6-dimethylphenyl)-5H-pyrrolo[2,3-b]pyrazin-7-yl)(5-(4-methylpiperazin-1-yl)-1H-indol-2-yl)methanone]	A (ΔTm (° C.) ≥ 5° C.)	≤ 200 nM	
Cc1cc2c(C(=O)c3nc4ccccc4[nH]3)c(N)n(-c3c(C)ccc(O)c3C)c2nc1C (atropisomer, axis not shown) [Example 12, (R)-(2-amino-1-(3-hydroxy-2,6-dimethylphenyl)-5,6-dimethyl-1H-pyrrolo[2,3-b]pyridin-3-yl)(1H-benzo[d]imidazol-2-yl)methanone]	B (5 °C ≥ ΔTm (° C.))		
Cc1ccc(O)c(C)c1-n1c(N)c(C(=O)c2cc3ccccc3[nH]2)c2nc(C)c(C)nc21 (atropisomer, axis not shown) [Example 10, (R)-(6-amino-5-(3-hydroxy-2,6-dimethylphenyl)-2,3-dimethyl-5H-pyrrolo[2,3-b]pyrazin-7-yl)(1H-indol-2-yl)methanone]	B (5 °C ≥ ΔTm (° C.))		
Cc1ccc(O)c(C)c1-n1c(N)c(C(=O)c2cc3occc3[nH]2)c2nc(C)c(C)nc21 (atropisomer, axis not shown) [Example 18, (R)-(6-amino-5-(3-hydroxy-2,6-dimethylphenyl)-2,3-dimethyl-5H-pyrrolo[2,3-b]pyrazin-7-yl)(4H-furo[3,2-b]pyrrol-5-yl)methanone]	A (ΔTm (° C.) ≥ 5° C.)	≤ 200 nM	
Cc1ccc(O)c(C)c1-n1c(N)c(C(=O)c2cc3cc(CN4CCOCC4)ccc3[nH]2)c2nccnc21 (atropisomer, axis not shown) [Example 19, (S)-(6-amino-5-(3-hydroxy-2,6-dimethylphenyl)-5H-pyrrolo[2,3-b]pyrazin-7-yl)(5-(morpholinomethyl)-1H-indol-2-yl)methanone]		≤ 200 nM	≥ 5 °C
Cc1ccc(O)c(C)c1-n1c(N)c(C(=O)c2nc3ccccc3[nH]2)c2cccnc21 (atropisomer, axis not shown) [Example 4, (R)-(2-amino-1-(3-hydroxy-2,6-dimethylphenyl)-1H-pyrrolo[2,3-b]pyridin-3-yl)(1H-benzo[d]imidazol-2-yl)methanone]			≤ 5 °C
Cc1ccc(O)c(C)c1-n1c(N)c(C(=O)c2cc3occc3[nH]2)c2nc(C)c(C)nc21 (atropisomer, axis not shown) [Example 17, (S)-(6-amino-5-(3-hydroxy-2,6-dimethylphenyl)-2,3-dimethyl-5H-pyrrolo[2,3-b]pyrazin-7-yl)(4H-furo[3,2-b]pyrrol-5-yl)methanone]			≤ 5 °C
Cc1ccc(O)c(C)c1-n1c(N)c(C(=O)c2ccc[nH]2)c2nccnc21 [Example 23, (6-amino-5-(3-hydroxy-2,6-dimethylphenyl)-5H-pyrrolo[2,3-b]pyrazin-7-yl)(1H-pyrrol-2-yl)methanone]		≤ 200 nM	≤ 5 °C
Cc1ccc(O)c(C)c1-n1c(N)c(C(=O)c2cc3cc(P(C)(C)=O)ccc3[nH]2)c2nccnc21 [Example 40, (6-amino-5-(3-hydroxy-2,6-dimethylphenyl)-5H-pyrrolo[2,3-b]pyrazin-7-yl)(5-(dimethylphosphoryl)-1H-indol-2-yl)methanone]			≥ 5 °C
Cc1ccc(O)c(C)c1-n1c(N)c(C(=O)c2cc3sccc3[nH]2)c2nc(C)c(C)nc21 [Example 14, (R)-(6-amino-5-(3-hydroxy-2,6-dimethylphenyl)-2,3-dimethyl-5H-pyrrolo[2,3-b]pyrazin-7-yl)(4H-thieno[3,2-b]pyrrol-5-yl)methanone]	B (5 °C ≥ ΔTm (° C.))		
Cc1ccc(O)c(C)c1-n1c(N)c(C(=O)c2cc3ccccc3[nH]2)c2nc(C)c(C)nc21 (atropisomer, axis not shown) [Example 9, (S)-(6-amino-5-(3-hydroxy-2,6-dimethylphenyl)-2,3-dimethyl-5H-pyrrolo[2,3-b]pyrazin-7-yl)(1H-indol-2-yl)methanone]		200 to 500 nM	≥ 5 °C
Cc1ccc(O)c(C)c1-n1c(N)c(C(=O)c2cc3cc(CN4CCOCC4)ccc3[nH]2)c2nccnc21 (atropisomer, axis not shown) [Example 20, (R)-(6-amino-5-(3-hydroxy-2,6-dimethylphenyl)-5H-pyrrolo[2,3-b]pyrazin-7-yl)(5-(morpholinomethyl)-1H-indol-2-yl)methanone]	B (5 °C ≥ ΔTm (° C.))		
Cc1ccc(O)c(C)c1-n1c(N)c(C(=O)c2cc3cnc(N4CCOCC4)cc3[nH]2)c2nc(C)c(C)nc21 (atropisomer, axis not shown) [Example 16, (R)-(6-amino-5-(3-hydroxy-2,6-dimethylphenyl)-2,3-dimethyl-5H-pyrrolo[2,3-b]pyrazin-7-yl)(6-morpholino-1H-pyrrolo[3,2-c]pyridin-2-yl)methanone]	B (5 °C ≥ ΔTm (° C.))		
Cc1cc2c(C(=O)c3nc4ccccc4[nH]3)c(N)n(-c3c(C)ccc(O)c3C)c2nc1C (atropisomer, axis not shown) [Example 11, (S)-(2-amino-1-(3-hydroxy-2,6-dimethylphenyl)-5,6-dimethyl-1H-pyrrolo[2,3-b]pyridin-3-yl)(1H-benzo[d]imidazol-2-yl)methanone]			≥ 5 °C
Cc1ccc(O)c(C)c1-n1c(N)c(C(=O)c2cc3cc(N4CCN(C)CC4)ccc3[nH]2)c2nccnc21 (atropisomer, axis not shown) [Example 21, (S)-(6-amino-5-(3-hydroxy-2,6-dimethylphenyl)-5H-pyrrolo[2,3-b]pyrazin-7-yl)(5-(4-methylpiperazin-1-yl)-1H-indol-2-yl)methanone]			≤ 5 °C

More lines, now with the values ahead:

ΔTm (° C.) (Myt1-KD)	IC50 (human PKMYT1 enzyme)	ΔTm at 100 µM (Myt1-KD)	Structure (SMILES)
	≤ 200 nM	≥ 5 °C	Cc1ccc(O)c(C)c1-n1c(N)c(C(=O)c2cc3sccc3[nH]2)c2nccnc21 (atropisomer, axis not shown) [Example 5, (S)-(6-amino-5-(3-hydroxy-2,6-dimethylphenyl)-5H-pyrrolo[2,3-b]pyrazin-7-yl)(4H-thieno[3,2-b]pyrrol-5-yl)methanone]
		≤ 5 °C	Cc1ccc(O)c(C)c1-n1c(N)c(C(=O)c2cc3ccncc3[nH]2)c2nccnc21 (atropisomer, axis not shown) [Example 24, (S)-(6-amino-5-(3-hydroxy-2,6-dimethylphenyl)-5H-pyrrolo[2,3-b]pyrazin-7-yl)(1H-pyrrolo[2,3-c]pyridin-2-yl)methanone]
	≤ 200 nM	≥ 5 °C	Cc1ccc(O)c(C)c1-n1c(N)c(C(=O)c2cc3occc3[nH]2)c2nccnc21 (atropisomer, axis not shown) [Example 7, (S)-(6-amino-5-(3-hydroxy-2,6-dimethylphenyl)-5H-pyrrolo[2,3-b]pyrazin-7-yl)(4H-furo[3,2-b]pyrrol-5-yl)methanone]
	≤ 200 nM	≥ 5 °C	Cc1ccc(O)c(C)c1-n1c(N)c(C(=O)c2cc3ccccc3[nH]2)c2nccnc21 (single isomer, unassigned) [Example 1]
B (5 °C ≥ ΔTm (° C.))			Cc1ccc(O)c(C)c1-n1c(N)c(C(=O)c2cc3sccc3[nH]2)c2nccnc21 (atropisomer, axis not shown) [Example 6, (R)-(6-amino-5-(3-hydroxy-2,6-dimethylphenyl)-5H-pyrrolo[2,3-b]pyrazin-7-yl)(4H-thieno[3,2-b]pyrrol-5-yl)methanone]
		≥ 5 °C	Cc1ccc(O)c(C)c1-n1c(N)c(C(=O)c2cc3ncccc3[nH]2)c2nccnc21 (atropisomer, axis not shown) [Example 26, (S)-(6-amino-5-(3-hydroxy-2,6-dimethylphenyl)-5H-pyrrolo[2,3-b]pyrazin-7-yl)(1H-pyrrolo[3,2-b]pyridin-2-yl)methanone]
B (5 °C ≥ ΔTm (° C.))			Cc1ccc(O)c(C)c1-n1c(N)c(C(=O)c2cc3ncccc3[nH]2)c2nccnc21 (atropisomer, axis not shown) [Example 27, (R)-(6-amino-5-(3-hydroxy-2,6-dimethylphenyl)-5H-pyrrolo[2,3-b]pyrazin-7-yl)(1H-pyrrolo[3,2-b]pyridin-2-yl)methanone]
B (5 °C ≥ ΔTm (° C.))			Cc1ccc(O)c(C)c1-n1c(N)c(C(=O)c2cc3occc3[nH]2)c2nccnc21 (atropisomer, axis not shown) [Example 8, (R)-(6-amino-5-(3-hydroxy-2,6-dimethylphenyl)-5H-pyrrolo[2,3-b]pyrazin-7-yl)(4H-furo[3,2-b]pyrrol-5-yl)methanone]
		≤ 5 °C	Cc1ccc(O)c(C)c1-n1c(N)c(C(=O)c2cc3ccccc3[nH]2)c2nccnc21 (atropisomer, axis not shown) [Example 2, (R)-(6-amino-5-(3-hydroxy-2,6-dimethylphenyl)-5H-pyrrolo[2,3-b]pyrazin-7-yl)(1H-indol-2-yl)methanone]
